Test results reported in patent publication US20190127381A1, “SUBSTITUTED FUSED PYRIMIDINONE COMPOUNDS” (TORRENT PHARMACEUTICALS LIMITED, priority 2016, published 2019).

Experiments:
[1] = target: T1, purified recombinant human PI3K enzyme δ (Homo sapiens, UniProt O00329); experiment: Inhibition of PI3-Kinase enzymatic activity (HTRF enzyme assay), δ; assay type: biochemical; details: 1 μM compound; PI3K δ 50 ng/well; PIP2 10 μM; ATP 200 μM; read-out: Percentage inhibition of PI3K activity, δ
T1 construct: purchased Invitrogen, USA
T1 sequence (O00329 whole entry): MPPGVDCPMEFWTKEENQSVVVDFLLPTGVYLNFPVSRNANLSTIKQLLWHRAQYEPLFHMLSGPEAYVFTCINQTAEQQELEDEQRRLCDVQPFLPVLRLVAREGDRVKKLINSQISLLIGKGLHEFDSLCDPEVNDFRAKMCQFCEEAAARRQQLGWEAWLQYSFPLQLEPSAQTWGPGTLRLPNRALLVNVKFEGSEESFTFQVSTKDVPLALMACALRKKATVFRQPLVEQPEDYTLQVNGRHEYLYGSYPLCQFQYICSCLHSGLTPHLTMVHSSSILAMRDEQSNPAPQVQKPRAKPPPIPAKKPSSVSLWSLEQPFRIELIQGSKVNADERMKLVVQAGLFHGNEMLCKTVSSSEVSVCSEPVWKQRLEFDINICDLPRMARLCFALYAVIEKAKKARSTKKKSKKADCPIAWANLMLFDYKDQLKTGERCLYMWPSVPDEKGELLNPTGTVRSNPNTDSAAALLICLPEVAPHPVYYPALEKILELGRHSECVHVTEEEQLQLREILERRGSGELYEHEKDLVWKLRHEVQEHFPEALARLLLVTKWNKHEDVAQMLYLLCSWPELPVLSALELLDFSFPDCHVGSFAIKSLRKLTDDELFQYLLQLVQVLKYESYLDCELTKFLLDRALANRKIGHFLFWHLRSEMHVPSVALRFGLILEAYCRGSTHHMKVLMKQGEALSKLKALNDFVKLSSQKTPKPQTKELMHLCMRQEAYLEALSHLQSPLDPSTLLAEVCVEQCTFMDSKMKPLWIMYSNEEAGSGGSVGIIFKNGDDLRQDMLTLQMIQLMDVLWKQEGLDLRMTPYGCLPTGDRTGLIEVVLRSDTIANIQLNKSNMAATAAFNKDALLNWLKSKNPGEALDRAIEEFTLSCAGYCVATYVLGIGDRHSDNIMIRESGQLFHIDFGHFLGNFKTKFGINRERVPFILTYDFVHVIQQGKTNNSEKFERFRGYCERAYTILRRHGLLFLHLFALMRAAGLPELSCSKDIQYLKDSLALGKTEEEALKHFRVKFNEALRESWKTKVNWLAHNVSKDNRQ
T1 sequence (P27986 whole entry partner): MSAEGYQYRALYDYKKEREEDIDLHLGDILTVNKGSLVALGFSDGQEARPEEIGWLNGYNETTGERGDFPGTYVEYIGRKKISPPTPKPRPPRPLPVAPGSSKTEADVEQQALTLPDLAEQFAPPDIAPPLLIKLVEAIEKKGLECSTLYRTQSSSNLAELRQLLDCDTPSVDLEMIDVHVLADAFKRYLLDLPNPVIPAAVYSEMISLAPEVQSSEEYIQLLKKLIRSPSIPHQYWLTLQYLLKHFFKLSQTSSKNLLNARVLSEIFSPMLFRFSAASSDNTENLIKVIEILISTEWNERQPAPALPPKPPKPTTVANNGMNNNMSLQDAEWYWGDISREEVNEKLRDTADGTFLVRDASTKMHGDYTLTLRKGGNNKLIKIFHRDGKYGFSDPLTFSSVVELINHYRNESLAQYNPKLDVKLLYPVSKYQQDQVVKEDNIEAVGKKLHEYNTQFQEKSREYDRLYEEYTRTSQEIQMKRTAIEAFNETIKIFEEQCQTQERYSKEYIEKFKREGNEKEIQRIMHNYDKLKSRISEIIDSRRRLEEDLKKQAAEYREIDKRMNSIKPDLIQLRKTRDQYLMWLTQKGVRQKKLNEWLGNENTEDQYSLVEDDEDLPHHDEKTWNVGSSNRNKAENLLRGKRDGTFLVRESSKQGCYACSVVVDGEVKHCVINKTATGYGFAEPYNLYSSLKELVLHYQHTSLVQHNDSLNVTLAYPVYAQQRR
Description: (§1) Inhibition of PI3-Kinase enzymatic activity was determined using a homogeneous time-resolved fluorescence (HTRF) kit from Eurofins. 1 μM of Compounds of present invention were premixed with DMSO. The experiment was initiated by mixing 1.0% DMSO as vehicle/compounds with purified recombinant human PI3K enzyme {δ (50 ng/well); γ (100 ng/well)} (Invitrogen, USA) and substrate (PIP2, 10 μM) in the wells and incubation for 15 min at room temperature. There after ATP was added (δ at 200 μM, and γ at 50 μM) in to the wells containing reaction mixture, followed by re-incubation for 30 minutes at room temperature. Reaction was terminated by addition of a stopping solution and was further incubated for 4 hours at room temperature before reading using Envision multimode reader (Perkin Elmer). Percentage inhibition of PI3K activity was calculated by determining ratio of specific europium 665 nm energy transfer signal to reference 615 nm signals.

[2] = target: T2, purified recombinant human PI3K enzyme γ (Homo sapiens, UniProt P48736); experiment: Inhibition of PI3-Kinase enzymatic activity (HTRF enzyme assay), γ; assay type: biochemical; details: 1 μM compound; PI3K γ 100 ng/well; PIP2 10 μM; ATP 50 μM; read-out: Percentage inhibition of PI3K activity, γ
T2 construct: purchased Invitrogen, USA
T2 sequence (P48736 whole entry): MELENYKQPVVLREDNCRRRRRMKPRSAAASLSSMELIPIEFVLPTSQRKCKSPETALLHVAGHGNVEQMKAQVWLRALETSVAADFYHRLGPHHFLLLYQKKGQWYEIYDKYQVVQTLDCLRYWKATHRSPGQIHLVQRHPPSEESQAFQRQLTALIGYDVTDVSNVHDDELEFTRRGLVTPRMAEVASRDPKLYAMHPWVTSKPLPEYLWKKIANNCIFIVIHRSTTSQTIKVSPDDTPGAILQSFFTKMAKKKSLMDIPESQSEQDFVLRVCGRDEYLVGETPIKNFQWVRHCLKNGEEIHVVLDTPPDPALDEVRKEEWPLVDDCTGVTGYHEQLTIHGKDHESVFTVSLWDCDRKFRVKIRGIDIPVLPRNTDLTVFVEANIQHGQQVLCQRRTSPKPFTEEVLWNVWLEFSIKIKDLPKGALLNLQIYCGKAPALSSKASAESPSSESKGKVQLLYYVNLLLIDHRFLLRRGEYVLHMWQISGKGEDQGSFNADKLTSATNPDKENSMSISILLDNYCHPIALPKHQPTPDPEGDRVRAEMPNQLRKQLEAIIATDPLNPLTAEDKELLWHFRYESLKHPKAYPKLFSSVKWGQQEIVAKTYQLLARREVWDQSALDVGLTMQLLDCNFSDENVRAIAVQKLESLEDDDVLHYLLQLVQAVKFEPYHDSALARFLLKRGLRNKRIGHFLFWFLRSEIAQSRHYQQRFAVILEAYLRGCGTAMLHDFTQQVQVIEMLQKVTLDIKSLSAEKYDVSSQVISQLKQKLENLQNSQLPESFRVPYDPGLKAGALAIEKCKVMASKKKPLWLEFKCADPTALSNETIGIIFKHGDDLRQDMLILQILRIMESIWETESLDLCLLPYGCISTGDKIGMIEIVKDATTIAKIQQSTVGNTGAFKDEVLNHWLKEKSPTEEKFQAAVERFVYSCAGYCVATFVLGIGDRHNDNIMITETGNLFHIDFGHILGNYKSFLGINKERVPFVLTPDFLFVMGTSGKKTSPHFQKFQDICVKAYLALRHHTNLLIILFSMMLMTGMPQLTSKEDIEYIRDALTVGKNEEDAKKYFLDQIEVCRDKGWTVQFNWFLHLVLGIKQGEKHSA
Description: as §1

inhibition at 1 µM [1] | inhibition at 1 µM [2] | Structure (SMILES)
80 to 100% | 80 to 100% | Cc1ccc(-c2cccc3nc(Cn4nc(-c5ccc(O)c6c5CC(C)(C)O6)c5c(N)ncnc54)n(-n4cccc4)c(=O)c23)o1 [compound 15, 2-{[4-amino-3-(7-hydroxy-2,2-dimethyl-2,3-dihydro-1-benzofuran-4-yl)-1H-pyrazolo[3,4-d]pyrimidin-1-yl]methyl}-5-(5-methylfuran-2-yl)-3-(1H-pyrrol-1-yl)quinazolin-4(3H)-one]
80 to 100% | 80 to 100% | CC1(C)Cc2c(-c3nn(Cc4nc5cccc(-c6ccsc6)c5c(=O)n4C4(c5ccccc5)CC4)c4ncnc(N)c34)ccc(O)c2O1 [compound 25, 2-{[4-amino-3-(7-hydroxy-2,2-dimethyl-2,3-dihydro-1-benzofuran-4-yl)-1H-pyrazolo[3,4-d]pyrimidin-1-yl]methyl}-3-(1-phenylcyclopropyl)-5-(thiophen-3-yl)quinazolin-4(3H)-one]
80 to 100% | 60 to 80% | Cn1nccc1-c1cccc2nc(Cn3nc(-c4ccc(O)c5c4CC(C)(C)O5)c4c(N)ncnc43)n(C3(c4ccccc4)CC3)c(=O)c12 [compound 30, 2-{[4-amino-3-(7-hydroxy-2,2-dimethyl-2,3-dihydro-1-benzofuran-4-yl)-1H-pyrazolo[3,4-d]pyrimidin-1-yl]methyl}-5-(1-methyl-1H-pyrazol-5-yl)-3-(1-phenylcyclopropyl)quinazolin-4(3H)-one]
80 to 100% | 60 to 80% | Cc1ccccc1C1(n2c(Cn3nc(-c4ccc(O)c5c4CC(C)(C)O5)c4c(N)ncnc43)nc3cccc(C)c3c2=O)CC1 [compound 56, 2-{[4-amino-3-(7-hydroxy-2,2-dimethyl-2,3-dihydro-1-benzofuran-4-yl)-1H-pyrazolo[3,4-d]pyrimidin-1-yl]methyl}-5-methyl-3-[1-(2-methylphenyl)cyclopropyl]quinazolin-4(3H)-one]
80 to 100% | 60 to 80% | Cn1nccc1-c1cccc2nc(Cn3nc(-c4ccc(O)c5c4CC(C)(C)O5)c4c(N)ncnc43)n(-n3cccc3)c(=O)c12 [compound 22, 2-{[4-amino-3-(7-hydroxy-2,2-dimethyl-2,3-dihydro-1-benzofuran-4-yl)-1H-pyrazolo[3,4-d]pyrimidin-1-yl]methyl}-5-(1-methyl-1H-pyrazol-5-yl)-3-(1H-pyrrol-1-yl)quinazolin-4(3H)-one]
80 to 100% | 60 to 80% | CC1(C)Cc2c(-c3nn(Cc4nc5cccc(-c6ccncc6)c5c(=O)n4-n4cccc4)c4ncnc(N)c34)ccc(O)c2O1 [compound 18, 2-{[4-amino-3-(7-hydroxy-2,2-dimethyl-2,3-dihydro-1-benzofuran-4-yl)-1H-pyrazolo[3,4-d]pyrimidin-1-yl]methyl}-5-(pyridin-4-yl)-3-(1H-pyrrol-1-yl)quinazolin-4(3H)-one]
80 to 100% | 80 to 100% | CC1(C)Cc2c(-c3nn(Cc4nc5cccc(C#CCN6CCOCC6)c5c(=O)n4C4(c5ccsc5)CC4)c4ncnc(N)c34)ccc(O)c2O1 [compound 72, 2-{[4-amino-3-(7-hydroxy-2,2-dimethyl-2,3-dihydro-1-benzofuran-4-yl)-1H-pyrazolo[3,4-d]pyrimidin-1-yl]methyl}-5-[3-(morpholin-4-yl)prop-1-yn-1-yl]-3-[1-(thiophen-3-yl)cyclopropyl]quinazolin-4(3H)-one]
60 to 80% | 60 to 80% | Cc1ccc(-c2cccc3nc(Cn4nc(-c5ccc(O)c6c5CC(C)(C)O6)c5c(N)ncnc54)n(C4(c5ccccc5)CC4)c(=O)c23)o1 [compound 17, 2-{[4-amino-3-(7-hydroxy-2,2-dimethyl-2,3-dihydro-1-benzofuran-4-yl)-1H-pyrazolo[3,4-d]pyrimidin-1-yl]methyl}-5-(5-methylfuran-2-yl)-3-(1-phenylcyclopropyl)quinazolin-4(3H)-one]
80 to 100% | < 20% | Cc1ccc(C)n1-n1c(Cn2nc(-c3ccc(O)c4c3CC(C)(C)O4)c3c(N)ncnc32)nc2cccc(C#Cc3cncn3C)c2c1=O [compound 67, 2-{[4-amino-3-(7-hydroxy-2,2-dimethyl-2,3-dihydro-1-benzofuran-4-yl)-1H-pyrazolo[3,4-d]pyrimidin-1-yl]methyl}-3-(2,5-dimethyl-1H-pyrrol-1-yl)-5-[(1-methyl-1H-imidazol-5-yl)ethynyl]quinazolin-4(3H)-one]
80 to 100% | 80 to 100% | Cc1cccc2nc([C@H](C)n3nc(-c4ccc(O)c5c4CC(C)(C)O5)c4c(N)ncnc43)n(-n3c(C)ccc3C)c(=O)c12 [compound 95, 2-{(1S)-1-[4-amino-3-(7-hydroxy-2,2-dimethyl-2,3-dihydro-1-benzofuran-4-yl)-1H-pyrazolo[3,4-d]pyrimidin-1-yl]ethyl}-3-(2,5-dimethyl-1H-pyrrol-1-yl)-5-methylquinazolin-4(3H)-one]
80 to 100% | 40 to 60% | CC1(C)Cc2c(-c3nn(Cc4nc5cccc(F)c5c(=O)n4C4(c5ccccc5)CC4)c4ncnc(N)c34)ccc(O)c2O1 [compound 26, 2-{[4-amino-3-(7-hydroxy-2,2-dimethyl-2,3-dihydro-1-benzofuran-4-yl)-1H-pyrazolo[3,4-d]pyrimidin-1-yl]methyl}-5-fluoro-3-(1-phenylcyclopropyl)quinazolin-4(3H)-one]
80 to 100% | 60 to 80% | CC1(C)Cc2c(-c3nn(Cc4nc5cccc(Cl)c5c(=O)n4-n4cccn4)c4ncnc(N)c34)ccc(O)c2O1 [compound 6, 2-{[4-amino-3-(7-hydroxy-2,2-dimethyl-2,3-dihydro-1-benzofuran-4-yl)-1H-pyrazolo[3,4-d]pyrimidin-1-yl]methyl}-5-chloro-3-(1H-pyrazol-1-yl)quinazolin-4(3H)-one]
80 to 100% | 80 to 100% | Cn1cccc1-c1cccc2nc(Cn3nc(-c4ccc(O)c5c4CC(C)(C)O5)c4c(N)ncnc43)n(-n3cccc3)c(=O)c12 [compound 71, 2-{[4-amino-3-(7-hydroxy-2,2-dimethyl-2,3-dihydro-1-benzofuran-4-yl)-1H-pyrazolo[3,4-d]pyrimidin-1-yl]methyl}-5-(1-methyl-1H-pyrrol-2-yl)-3-(1H-pyrrol-1-yl)quinazolin-4(3H)-one]
80 to 100% | 60 to 80% | Cc1cc(C)n(-n2c(Cn3nc(-c4ccc(O)c5c4CC(C)(C)O5)c4c(N)ncnc43)nc3cccc(C)c3c2=O)n1 [compound 11, 2-{[4-amino-3-(7-hydroxy-2,2-dimethyl-2,3-dihydro-1-benzofuran-4-yl)-1H-pyrazolo[3,4-d]pyrimidin-1-yl]methyl}-3-(3,5-dimethyl-1H-pyrazol-1-yl)-5-methylquinazolin-4(3H)-one]
80 to 100% | 80 to 100% | Cc1cccc2nc(Cn3nc(-c4ccc(O)c5c4CC(C)(C)O5)c4c(N)ncnc43)n(-n3cccc3)c(=O)c12 [Compound No. 2, 2-{[4-amino-3-(7-hydroxy-2,2-dimethyl-2,3-dihydro-1-benzofuran-4-yl)-1H-pyrazolo[3,4-d]pyrimidin-1-yl]methyl}-5-methyl-3-(1H-pyrrol-1-yl)quinazolin-4(3H)-one]
80 to 100% | 80 to 100% | C#Cc1cccc2nc(Cn3nc(-c4ccc(O)c5c4CC(C)(C)O5)c4c(N)ncnc43)n(-n3cccc3)c(=O)c12 [compound 20, 2-{[4-amino-3-(7-hydroxy-2,2-dimethyl-2,3-dihydro-1-benzofuran-4-yl)-1H-pyrazolo[3,4-d]pyrimidin-1-yl]methyl}-5-ethynyl-3-(1H-pyrrol-1-yl)quinazolin-4(3H)-one]
80 to 100% | 60 to 80% | Cc1cccc2nc(Cn3nc(-c4ccc(O)c5c4CC(C)(C)O5)c4c(N)ncnc43)n(C3(c4cccs4)CC3)c(=O)c12 [compound 60, 2-{[4-amino-3-(7-hydroxy-2,2-dimethyl-2,3-dihydro-1-benzofuran-4-yl)-1H-pyrazolo[3,4-d]pyrimidin-1-yl]methyl}-5-methyl-3-[1-(thiophen-2-yl)cyclopropyl]quinazolin-4(3H)-one]
80 to 100% | 80 to 100% | Cn1cccc1-c1cccc2nc(Cn3nc(-c4ccc(O)c5c4CC(C)(C)O5)c4c(N)ncnc43)n(C3(c4ccsc4)CC3)c(=O)c12 [compound 75, 2-{[4-amino-3-(7-hydroxy-2,2-dimethyl-2,3-dihydro-1-benzofuran-4-yl)-1H-pyrazolo[3,4-d]pyrimidin-1-yl]methyl}-5-(1-methyl-1H-pyrrol-2-yl)-3-[1-(thiophen-3-yl)cyclopropyl]quinazolin-4(3H)-one]
80 to 100% | 40 to 60% | CCn1cc(-c2cccc3nc([C@H](C)n4nc(-c5ccc(O)c6c5CC(C)(C)O6)c5c(N)ncnc54)n(-n4cccc4)c(=O)c23)cn1 [compound 99, 2-{(1S)-1-[4-amino-3-(7-hydroxy-2,2-dimethyl-2,3-dihydro-1-benzofuran-4-yl)-1H-pyrazolo[3,4-d]pyrimidin-1-yl]ethyl}-5-(1-ethyl-1H-pyrazol-4-yl)-3-(1H-pyrrol-1-yl)quinazolin-4(3H)-one]
